Columns and labels:
[1] = Log P by RP-HPLC (HPLC-PDA), extrapolation of Log k to 0% MeOH; assay type: physicochemical; conditions: for Log k / Retention factor (k): RP-C18
Protocol: For each compound, the retention time was reported at different percentages of mobile phases (Table 1). See Materials and Methods and Supplementary Materials for the detailed procedures. (1) k= tR− tM/tM where tR is the retention time of the sample and tM is the retention time of blank (methanol).
Stock solutions of each compound were prepared as follow: 1 mg of the synthesized compound and RSV (control) was weighted and dissolved in 1 mL of dimethyl sulfoxide (DMSO). The working solutions were prepared in methanol at 100 µg/mL. 20 µL of working solutions was injected in HPLC system without pre-treatment.
The HPLC analyses for all new compounds were carried out in isocratic conditions with Milli-Q Water (18.2 MΩ-cm at 25 °C) as solvent A and MeOH as solvent B in different percentages reported in […]. RP-C18 stationary phase (LiChrosorb C18, 150 × 4.6 mm, 5 µm) column was used. All compounds were detected at their maximum wavelength: 322 nm for 1, 301 nm for 2, 324 nm for 3, 324 nm for 4, 373 nm for 5, 322 nm for 6, 320 nm for 7, whereas RSV was detected at 306 nm. The total run time was kept until sample elution.

[2] = system: C2C12 cells; test: MTT assay, cell vitality/proliferation; assay type: cell-based, mouse
Protocol: The oxidative stress plays one of the key roles in cell’s life path. For these reasons, to evaluate the possible cytotoxic effects of compounds 1–7 and their effect on the cell proliferative capacity and to define a suitable concentration range, all the new synthesized compounds 1–7 were evaluated for their cytotoxic activity at three different concentrations (1, 10 and 100 μM) via standard MTT assay, using C2C12 cell line (Figure 3). Due to well-known antioxidant and neurodegenerative senescence prevention abilities in addition to enhancing the beneficial effects of physical exercise on the skeletal muscles of the elderly, RSV was used as reference compound [54, 55]. […] For this reason, we performed the same assay also at 48 h for the compounds 5, 6 and RSV (Figure 4).
Prompted by the results obtained for compound 6 as a scavenge ROS due the presence of halogenated groups, we used the widely C2C12 mouse cells as a myogenic model, to study its antioxidant effects following both the evaluation of superoxide anion radical concentration and chemical insults, such as from H2O2. C2C12 cells (CRL 1772; American Type Culture Collection, Rockville, MD, USA) were grown in Dulbecco’s modified Eagle’s medium (DMEM; Euroclone, Pero, Italy) containing 20% foetal bovine serum (Euroclone), […] L-glutamine (Euroclone) and 100 IU mL^−1 penicillin and 100 μg mL^−1 streptomycin (Euroclone). The cells were maintained at 37 °C in a 5% CO2 humidified atmosphere.
Cellular proliferation was tested using a colorimetric assay of 3-[4,5-dimethylthiazol-2-yl]-2,5-diphenyltetrazolium bromide (MTT). We seeded 2000 cells/well in a final volume of 200 μL growth medium in 96-well plates. After 24 h the cells were stimulated with or w/o the newly synthesized compounds for 24 h, or, where indicated, for 48 h. We tested seven new synthesized compounds together with RSV reference at different concentration (1, 10, 100 μM). All compounds were dissolved in DMSO and the experimental dilutions used were made using cellular growth medium. For this reason, the cells were also incubated for 24 h with the DMSO at the same concentration used for the compounds. Incubation was terminated by adding 20 μL of MTT solution (5 mg mL^−1 in phosphate-buffered saline (PBS)) to each well, followed by incubation at 37 °C for 3 h in the dark. After, the plates were centrifuged at 2000 rpm for 15 min. The supernatant was removed, 200 μL dimethylsulfoxide (DMSO) was added to each well, and the plates were incubated for 30 min at 37 °C in the dark. Finally, the plates were read at 540 nm on a scanning multi-well spectrophotometer (Cary50MPR, Varian, Santa Clara, CA, USA).

[3] = system: C2C12 cells; test: H2DCFDA assay, intracellular ROS after H2O2 insult; assay type: cell-based, mouse; conditions: for ROS levels (H2DCFDA fluorescence): C2C12, 24 h pretreatment, 300 µM H2O2, compared to CTRL
Protocol: Indeed, the antioxidant activity of compound 6 was also evaluated using an H2DCFDA assay (Figure 6). This assay is one of the most widely used techniques for directly measuring the redox state of a cell. In order to accurately measure ROS and the cellular capability to counteract the H2O2 insult, we used cell-permeable fluorescent and chemiluminescent probes. The fluorescence intensity is proportional to the ROS levels within the cell cytosol and it is in inverse relation to the antioxidant capacity of the cells themselves. The ability to restore the basal level of fluorescence are reported in Figure 6, after 0.5 and 10 min following oxidant stimulus.
Intracellular ROS were quantified by the 2′,7′-dichlorodihydrofluorescein diacetate (H2DCF-DA Cat. No. D6883; Sigma). C2C12 cells were plated (2000 cells/well) into special optics 96-well plates (Corning-Costar, New York, NY, USA) and the cells were treated with RSV at 1 µM and Compound 6 at 1 and 10 µM for 24 h. After the incubation, cells were washed with an imaging buffer and treated with 300 µM H2O2 for an immediate fluorescence measurement. Plates were read every 50 s from 0 to 10 min for kinetic data analysis using a microplate reader (Synergy H1, BioTek), with excitation and emission wavelengths at 490 nm and 520 nm, respectively, and analyzed by Gen 5 version 2.08 (BioTek).

[4] = system: C2C12 cells; test: NBT assay, superoxide anion detection; assay type: cell-based, mouse; conditions: C2C12, 24 h incubation, 1 and 10 μM
Protocol: At first, the antioxidant effect of compound 6 was assessed by NBT assay (Figure 5). The NBT assay is based on the reduction of NBT into formazan by superoxide anion O2^-. […] The concentration of superoxide anion radical in the cells was determined by spectrophotometric method and is based on the reduction of Nitro blue tetrazolium chloride to Nitro blue-formazan in the presence of O2^-.
Since that during aging, among the ROS there are radicals as superoxide anion that can levels increase, [32] we used NBT assay in order to evaluate the antioxidant capacity of compound 6. C2C12 cells (10^6 cells) were stimulated with or w/o the compound 6 at 1 and 10 μM together with the RSV for 24 h, harvested, centrifuged for 5 min at 1200 rpm and resuspended in 1 mL 0.9% NaCl in which NBT (Nitro blue tetrazolium chloride) is dissolved 1 mg/mL. The cells were incubated for 3 h at 37 °C, centrifuged (for 10 min at 1200 rpm), resuspended in 1 mL DMSO and left 20’ in 37 °C. For the assay, the cells were plated in a 96 well plate (2 × 10^5 cell/well) and read by spectrophotometer at 550 nm on a scanning multi-well spectrophotometer (Cary50MPR, Varian, Santa Clara, CA, USA).

[5] = cited from earlier work
[6] = Log P estimated by RP-HPLC, extrapolated to 0% MeOH, SD at 95% confidence interval

melting point [°C] | Log k ([1]; 60% MeOH) | Retention factor (k) ([1]; 60% MeOH) | Log k ([1]; 70% MeOH) | Retention factor (k) ([1]; 70% MeOH) | Log k ([1]; 75% MeOH) | Retention factor (k) ([1]; 75% MeOH) | Log k ([1]; 80% MeOH) | Retention factor (k) ([1]; 80% MeOH) | chromatographic logP [1, 6] | Log k ([1]; 65% MeOH) | Retention factor (k) ([1]; 65% MeOH) | Compound | cell vitality (MTT reduction) ([2]; C2C12, 48 h, 1 and 10 μM) | also measured
119 to 120 | 1.4819 | 30.3325 | 0.8936 | 7.8267 | 0.6070 | 4.0455 | 0.3308 | 2.1420 | 5.11 ± 0.07 |  |  | Oc1ccc(/C=C/c2ccc(Cl)cc2Cl)cc1 [Compound 3, 4-[(E)-2-(2,4-Dichlorophenyl)vinyl]phenol] |  | Log k ([1]; 50% MeOH): 2.1310; Retention factor (k) ([1]; 50% MeOH): 135.2173
135 to 136 | 1.7713 | 59.0580 | 1.1149 | 13.0290 | 0.7826 | 6.0620 | 0.5423 | 3.4855 | > 5 | 1.4456 | 27.8973 | Oc1ccc(/C=C/c2ccc(Cl)cc2Cl)cc1Cl [Compound 4, 2-Chloro-4-[(E)-2-(2,4-dichlorophenyl)vinyl] phenol] |  | Log P * ± SD [1, 6]: 5.50 ± 0.14
184 to 185 | 0.9828 | 9.6110 | 0.4010 | 2.5176 | 0.1330 | 1.3584 | −0.1255 | 0.7490 | 4.29 ± 0.07 | 0.6845 | 4.8361 | Oc1ccc(/C=C/c2ccc(Cl)cc2)cc1 [Compound 1, 4-[(E)-2-(4-Chlorophenyl)vinyl]phenol] |  | 
 | 0.9974 | 9.9412 | 0.4442 | 2.7812 | 0.1536 | 1.4243 | −0.0669 | 0.8573 | 4.22 ± 0.09 | 0.7161 | 5.2008 | O=[N+]([O-])c1ccc(/C=C/c2ccc(O)c(Cl)c2)cc1 [Compound 5] | non-significant dose-dependent decrease of vitality | 
126 to 127 | 1.0560 | 11.3757 | 0.5049 | 3.1984 | 0.2243 | 1.6761 | 0.0216 | 1.0510 | 4.2 ± 0.12 | 0.7826 | 6.0620 | Oc1ccc(/C=C/c2ccccc2)cc1Cl [Compound 2, 2-Chloro-4-[(E)-2-phenylvinyl]phenol] |  | 
161 to 163 | 1.1515 | 14.1757 | 0.5372 | 3.4447 | 0.2568 | 1.8063 | −0.0429 | 0.9059 | 4.7 ± 0.05 | 0.8368 | 6.8682 | Oc1ccc(/C=C/c2ccc(C(F)(F)F)cc2)cc1 [Compound 7, 4-{(E)-2-[4-(Trifluoromethyl)phenyl]vinyl}phenol] |  | 
 |  |  |  |  |  |  |  |  | 2.47 ± 0.11 |  |  | Oc1ccc(/C=C/c2cc(O)cc(O)c2)cc1 [RSV, 3,5,4′-trihydroxy-trans-stilbene, reference compound] | did not change the effects respect to the control | bioavailability [5]: less than 1%; oral bioavailability ([5]; in vivo): almost zero; ROS levels (H2DCFDA fluorescence) [3]: reduce the ROS levels; Log k ([1]; 20% MeOH): 1.6477; Retention factor (k) ([1]; 20% MeOH): 44.4282; Log k ([1]; 25% MeOH): 1.3573; Retention factor (k) ([1]; 25% MeOH): 22.7655; Log k ([1]; 30% MeOH): 1.0693; Retention factor (k) ([1]; 30% MeOH): 11.7294; Log k ([1]; 40% MeOH): 0.5493; Retention factor (k) ([1]; 40% MeOH): 3.5427; Log k ([1]; 50% MeOH): 0.0010; Retention factor (k) ([1]; 50% MeOH): 1.0024

Compound | melting point [°C] | Log k ([1]; 60% MeOH) | Retention factor (k) ([1]; 60% MeOH) | Log k ([1]; 70% MeOH) | Retention factor (k) ([1]; 70% MeOH) | Log k ([1]; 75% MeOH) | Retention factor (k) ([1]; 75% MeOH) | Log k ([1]; 80% MeOH) | Retention factor (k) ([1]; 80% MeOH) | chromatographic logP [1, 6] | Log k ([1]; 65% MeOH) | Retention factor (k) ([1]; 65% MeOH) | cell vitality (MTT reduction) ([2]; C2C12, 48 h, 1 and 10 μM) | also measured
Oc1ccc(/C=C/c2ccc(C(F)(F)F)cc2)cc1Cl [Compound 6, 2-Chloro-4-{(E)-2-[4-(trifluoromethyl)phenyl]vinyl}phenol] | 117 to 118.4 | 1.4227 | 26.4651 | 0.7645 | 5.8149 | 0.4605 | 2.8871 | 0.1498 | 1.4118 | 5.21 ± 0.06 | 1.0820 | 12.0776 | enhanced vitality | cell vitality (MTT reduction) ([2]; C2C12, 24 h, 100 μM): drastically reduced the vitality; cell vitality (MTT reduction) ([2]; C2C12, 24 h, 1 and 10 μM): significant increase of the cell vitality; cell vitality (MTT reduction) ([2]; C2C12, 48 h, 1 μM): moderate effect; cell vitality (MTT reduction) ([2]; C2C12, 48 h, 10 μM): higher effect; antioxidant capacity with respect to RSV ([3]; C2C12, 10 μM, 300 µM H2O2): significantly higher antioxidant capacity; oxidant insult by H2O2 (H2DCFDA fluorescence) ([3]; C2C12, 10 μM, 24 h pretreatment, 300 µM H2O2, stable throughout time-course): strongly counteracted; ROS levels (H2DCFDA fluorescence) [3]: reduce the ROS levels; O2- levels (NBT assay) [4]: significant decrease of O2^- levels
